This note sets out measurements from US20050214886A1, “TNF modulation” (YEDA RESEARCH AND DEVELOPMENT CO. LTD., priority 1995, published 2005).

The subject of this experiment is 26 kDa TNF molecules in HeLa-M9 cells. Description: [32P] metabolic labeling and immunoprecipitation: phosphorylation of 26 kDa TNF. The class given is cell-based, human. The conditions noted are these: preliminary experiments, data not shown. The source says: The intracellular region is the only part of the TNF molecule accessible for phosphorylation by cytoplasmic protein kinases. The specific kinases involved in TNF phosphorylation are not known, nor is it known if, and in what way, the activity of these kinases is subject to modulation by agents that affect TNF activity. Evidently, the phosphorylation observed in the HeLa-M9 cells, in which TNF was synthesized without stimulation, reflects the function of kinase(s) that constitutively act in these cells. On the other hand, the phosphorylation observed in the LPS-stimulated MM6 cells could involve effects of LPS activated protein kinases (Liu et al., 1994; Han et al., 1995). The serine at position −50 seems to be a suitable substrate for phosphorylation by protein kinase C (Kennelly and Krebs, 1991).
Labeling of cells with [^35S]Met or [^32P) orthophosphate was performed by incubation in Met-free or phosphate-free medium, supplemented with 5 or 10% FCS, that had been dialyzed against either PBS or 0.9% NaCl, respectively. […]
Immunoprecipitation was performed using sheep anti-TNF antiserum or, as a control, non-immune sheep serum, at a dilution of 1:200. […] The immunoprecipitated proteins were analyzed by SDS-PAGE under reducing conditions (12% acrylamide). […]

Molecules are shown by their SMILES.

As to `CCCCCCCCCCCCCC(=O)O[C@@H]1[C@@H](C)[C@@]2(O)[C@@H](C=C(CO)C[C@]3(O)C(=O)C(C)=C[C@@H]23)[C@@H]2C(C)(C)[C@]12OC(C)=O` [4β-phorbol-12-myristate-13-acetate], the “increase of phosphorylation of the 26 kDa TNF molecules” value is on record as “did not observe any increase of phosphorylation”.
